Experimental data from the NIST ThermoML archive (doi:10.1016/j.jct.2014.12.011).
Numbers after ± are expanded uncertainties.

Experiment: mn = molality of the nth substance listed, in mol/kg
Settings: 100 kPa, Liquid, Alternating current cell with electrodes

CCCCCCCCCC(=O)[O-].[K+] [potassium decanoate] + O
electrical conductivity (288.15 K, m1 = 0.00932): 0.0666 ± 0.001 S/m | electrical conductivity (288.15 K, m1 = 0.01855): 0.13 ± 0.0015 S/m | electrical conductivity (288.15 K, m1 = 0.02771): 0.19 ± 0.002 S/m | electrical conductivity (288.15 K, m1 = 0.03678): 0.247 ± 0.0026 S/m | electrical conductivity (288.15 K, m1 = 0.04578): 0.303 ± 0.0031 S/m | electrical conductivity (288.15 K, m1 = 0.0547): 0.358 ± 0.0036 S/m | electrical conductivity (288.15 K, m1 = 0.06355): 0.411 ± 0.0042 S/m | electrical conductivity (288.15 K, m1 = 0.07232): 0.462 ± 0.0047 S/m | electrical conductivity (288.15 K, m1 = 0.08102): 0.511 ± 0.0052 S/m | electrical conductivity (288.15 K, m1 = 0.08964): 0.5603 ± 0.0056 S/m | electrical conductivity (288.15 K, m1 = 0.09819): 0.608 ± 0.0061 S/m | electrical conductivity (288.15 K, m1 = 0.1067): 0.654 ± 0.0066 S/m | electrical conductivity (288.15 K, m1 = 0.1151): 0.698 ± 0.007 S/m | electrical conductivity (288.15 K, m1 = 0.1234): 0.738 ± 0.0074 S/m | electrical conductivity (288.15 K, m1 = 0.1317): 0.771 ± 0.0077 S/m | electrical conductivity (288.15 K, m1 = 0.1399): 0.8021 ± 0.008 S/m | electrical conductivity (288.15 K, m1 = 0.148): 0.8314 ± 0.0083 S/m | electrical conductivity (288.15 K, m1 = 0.1561): 0.86 ± 0.0086 S/m | electrical conductivity (288.15 K, m1 = 0.1641): 0.888 ± 0.0089 S/m | electrical conductivity (288.15 K, m1 = 0.1721): 0.915 ± 0.0092 S/m | electrical conductivity (288.15 K, m1 = 0.1799): 0.943 ± 0.0094 S/m | electrical conductivity (288.15 K, m1 = 0.1878): 0.9704 ± 0.0097 S/m | electrical conductivity (298.15 K, m1 = 0.00998): 0.0875 ± 0.0012 S/m | electrical conductivity (298.15 K, m1 = 0.01987): 0.172 ± 0.0019 S/m | electrical conductivity (298.15 K, m1 = 0.02967): 0.251 ± 0.0026 S/m | electrical conductivity (298.15 K, m1 = 0.03939): 0.328 ± 0.0034 S/m | electrical conductivity (298.15 K, m1 = 0.04902): 0.402 ± 0.0041 S/m | electrical conductivity (298.15 K, m1 = 0.05856): 0.474 ± 0.0048 S/m | electrical conductivity (298.15 K, m1 = 0.06803): 0.545 ± 0.0055 S/m | electrical conductivity (298.15 K, m1 = 0.07741): 0.613 ± 0.0062 S/m | electrical conductivity (298.15 K, m1 = 0.08671): 0.679 ± 0.0068 S/m | electrical conductivity (298.15 K, m1 = 0.09593): 0.743 ± 0.0075 S/m | electrical conductivity (298.15 K, m1 = 0.1051): 0.802 ± 0.0081 S/m | electrical conductivity (298.15 K, m1 = 0.1141): 0.858 ± 0.0086 S/m | electrical conductivity (298.15 K, m1 = 0.1231): 0.905 ± 0.0091 S/m | electrical conductivity (298.15 K, m1 = 0.1321): 0.949 ± 0.0095 S/m | electrical conductivity (298.15 K, m1 = 0.1409): 0.99 ± 0.0099 S/m | electrical conductivity (298.15 K, m1 = 0.1497): 1.03 ± 0.01 S/m | electrical conductivity (298.15 K, m1 = 0.1583): 1.07 ± 0.011 S/m | electrical conductivity (298.15 K, m1 = 0.167): 1.108 ± 0.011 S/m | electrical conductivity (298.15 K, m1 = 0.1755): 1.147 ± 0.011 S/m | electrical conductivity (298.15 K, m1 = 0.184): 1.19 ± 0.012 S/m | electrical conductivity (298.15 K, m1 = 0.1924): 1.224 ± 0.012 S/m | electrical conductivity (298.15 K, m1 = 0.2008): 1.26 ± 0.013 S/m | electrical conductivity (298.15 K, m1 = 0.209): 1.301 ± 0.013 S/m | electrical conductivity (308.15 K, m1 = 0.00952): 0.101 ± 0.0014 S/m | electrical conductivity (308.15 K, m1 = 0.01895): 0.198 ± 0.0022 S/m | electrical conductivity (308.15 K, m1 = 0.0283): 0.29 ± 0.0031 S/m | electrical conductivity (308.15 K, m1 = 0.03758): 0.379 ± 0.0039 S/m | electrical conductivity (308.15 K, m1 = 0.04677): 0.465 ± 0.0048 S/m | electrical conductivity (308.15 K, m1 = 0.05588): 0.549 ± 0.0056 S/m | electrical conductivity (308.15 K, m1 = 0.06492): 0.631 ± 0.0064 S/m | electrical conductivity (308.15 K, m1 = 0.07388): 0.71 ± 0.0072 S/m | electrical conductivity (308.15 K, m1 = 0.08277): 0.785 ± 0.0079 S/m | electrical conductivity (308.15 K, m1 = 0.09158): 0.8601 ± 0.0086 S/m | electrical conductivity (308.15 K, m1 = 0.1003): 0.931 ± 0.0093 S/m | electrical conductivity (308.15 K, m1 = 0.109): 0.996 ± 0.01 S/m | electrical conductivity (308.15 K, m1 = 0.1176): 1.05 ± 0.011 S/m | electrical conductivity (308.15 K, m1 = 0.1261): 1.104 ± 0.011 S/m | electrical conductivity (308.15 K, m1 = 0.1346): 1.15 ± 0.012 S/m | electrical conductivity (308.15 K, m1 = 0.1429): 1.201 ± 0.012 S/m | electrical conductivity (308.15 K, m1 = 0.1512): 1.25 ± 0.013 S/m | electrical conductivity (308.15 K, m1 = 0.1595): 1.29 ± 0.013 S/m | electrical conductivity (308.15 K, m1 = 0.1677): 1.342 ± 0.013 S/m | electrical conductivity (308.15 K, m1 = 0.1758): 1.39 ± 0.014 S/m | electrical conductivity (308.15 K, m1 = 0.1838): 1.434 ± 0.014 S/m | electrical conductivity (308.15 K, m1 = 0.1918): 1.48 ± 0.015 S/m | electrical conductivity (308.15 K, m1 = 0.1997): 1.525 ± 0.015 S/m | electrical conductivity (318.15 K, m1 = 0.0099): 0.125 ± 0.0017 S/m | electrical conductivity (318.15 K, m1 = 0.01971): 0.243 ± 0.0027 S/m | electrical conductivity (318.15 K, m1 = 0.02944): 0.356 ± 0.0037 S/m | electrical conductivity (318.15 K, m1 = 0.03908): 0.465 ± 0.0048 S/m | electrical conductivity (318.15 K, m1 = 0.04864): 0.571 ± 0.0058 S/m | electrical conductivity (318.15 K, m1 = 0.05811): 0.673 ± 0.0068 S/m | electrical conductivity (318.15 K, m1 = 0.0675): 0.771 ± 0.0078 S/m | electrical conductivity (318.15 K, m1 = 0.07682): 0.867 ± 0.0087 S/m | electrical conductivity (318.15 K, m1 = 0.08605): 0.962 ± 0.0097 S/m | electrical conductivity (318.15 K, m1 = 0.0952): 1.05 ± 0.011 S/m | electrical conductivity (318.15 K, m1 = 0.1043): 1.135 ± 0.011 S/m | electrical conductivity (318.15 K, m1 = 0.1133): 1.21 ± 0.012 S/m | electrical conductivity (318.15 K, m1 = 0.1222): 1.28 ± 0.013 S/m | electrical conductivity (318.15 K, m1 = 0.131): 1.342 ± 0.013 S/m | electrical conductivity (318.15 K, m1 = 0.1398): 1.404 ± 0.014 S/m | electrical conductivity (318.15 K, m1 = 0.1485): 1.46 ± 0.015 S/m | electrical conductivity (318.15 K, m1 = 0.1571): 1.524 ± 0.015 S/m | electrical conductivity (318.15 K, m1 = 0.1657): 1.58 ± 0.016 S/m | electrical conductivity (318.15 K, m1 = 0.1742): 1.641 ± 0.016 S/m | electrical conductivity (318.15 K, m1 = 0.1826): 1.7 ± 0.017 S/m | electrical conductivity (318.15 K, m1 = 0.1909): 1.76 ± 0.018 S/m | electrical conductivity (318.15 K, m1 = 0.1992): 1.815 ± 0.018 S/m | electrical conductivity (318.15 K, m1 = 0.2074): 1.87 ± 0.019 S/m | electrical conductivity (328.15 K, m1 = 0.00972): 0.143 ± 0.002 S/m | electrical conductivity (328.15 K, m1 = 0.01937): 0.279 ± 0.0031 S/m | electrical conductivity (328.15 K, m1 = 0.02892): 0.408 ± 0.0043 S/m | electrical conductivity (328.15 K, m1 = 0.0384): 0.533 ± 0.0055 S/m | electrical conductivity (328.15 K, m1 = 0.0478): 0.654 ± 0.0067 S/m | electrical conductivity (328.15 K, m1 = 0.05712): 0.769 ± 0.0078 S/m | electrical conductivity (328.15 K, m1 = 0.06636): 0.883 ± 0.0089 S/m | electrical conductivity (328.15 K, m1 = 0.07552): 0.994 ± 0.01 S/m | electrical conductivity (328.15 K, m1 = 0.08461): 1.103 ± 0.011 S/m | electrical conductivity (328.15 K, m1 = 0.09362): 1.207 ± 0.012 S/m | electrical conductivity (328.15 K, m1 = 0.1026): 1.305 ± 0.013 S/m | electrical conductivity (328.15 K, m1 = 0.1114): 1.4 ± 0.014 S/m | electrical conductivity (328.15 K, m1 = 0.1202): 1.48 ± 0.015 S/m | electrical conductivity (328.15 K, m1 = 0.1289): 1.55 ± 0.016 S/m | electrical conductivity (328.15 K, m1 = 0.1376): 1.627 ± 0.016 S/m | electrical conductivity (328.15 K, m1 = 0.1462): 1.7 ± 0.017 S/m | electrical conductivity (328.15 K, m1 = 0.1547): 1.77 ± 0.018 S/m | electrical conductivity (328.15 K, m1 = 0.1631): 1.836 ± 0.018 S/m | electrical conductivity (328.15 K, m1 = 0.1715): 1.904 ± 0.019 S/m | electrical conductivity (328.15 K, m1 = 0.1798): 1.97 ± 0.02 S/m | electrical conductivity (328.15 K, m1 = 0.188): 2.038 ± 0.02 S/m | electrical conductivity (328.15 K, m1 = 0.1962): 2.106 ± 0.021 S/m | electrical conductivity (328.15 K, m1 = 0.2043): 2.17 ± 0.022 S/m
